# Measurements from PubChem BioAssay AID272 (DTP/NCI, 2004).
# “And” between values parts separate entries of the source, which are not always exact repeats. Equal entries are not always repeated. Results filed as inconclusive are left out.
# System: Lewis lung carcinoma i.m., BDF1 mice, T/C %
# Experiment: NCI In Vivo Anticancer Drug Screen. Data for tumor model Lewis Lung Carcinoma (intramuscular) in B6D2F1 (BDF1) mice
# In short: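 Tumour-bearing mice were dosed with compound, and either their survival or their tumour size was measured. Results were expressed relative to vehicle-treated controls as T/C.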
smiles,measurement,setting,value
Cc1c(N)nc([C@H](CC(N)=O)NC[C@H](N)C(N)=O)nc1C(=O)N[C@H](C(=O)N[C@H](C)[C@@H](O)[C@H](C)C(=O)N[C@H](C(=O)NCCc1nc(-c2nc(C(=O)NCCC[S+](C)C)cs2)cs1)[C@@H](C)O)C(OC1OC(CO)C(O)C(O)C1OC1OC(CO)C(O)C(OC(N)=O)C1O)c1cnc[nH]1 (stereo partly specified),T/C,"endpoint: mean tumor weight (est.), dose: 2.5 mg/kg/injection, schedule: Q01DX009 (ip), vehicle: saline, higher = larger tumour",44 % of control
same,T/C,"endpoint: mean tumor weight (est.), dose: 8.4 mg/kg/injection, schedule: Q01DX009 (ip), vehicle: saline, higher = larger tumour",24 % of control and 42 % of control
same,T/C,"endpoint: mean tumor weight (est.), dose: 14.0 mg/kg/injection, schedule: Q01DX009 (ip), vehicle: saline, higher = larger tumour",27 % of control and 37 % of control
same,T/C,"endpoint: mean tumor weight (est.), dose: 23.0 mg/kg/injection, schedule: Q01DX009 (ip), vehicle: saline, higher = larger tumour",14 % of control and 26 % of control
same,T/C,"endpoint: mean tumor weight (est.), dose: 39.0 mg/kg/injection, schedule: Q01DX009 (ip), vehicle: saline, higher = larger tumour",12 % of control
same,T/C,"endpoint: mean tumor weight, dose: 3.0 mg/kg/injection, schedule: Q01DX011 (ip), vehicle: saline, higher = larger tumour",38 % of control
same,T/C,"endpoint: mean tumor weight, dose: 3.75 mg/kg/injection, schedule: Q01DX011 (sc), vehicle: saline, higher = larger tumour",60 % of control
same,T/C,"endpoint: mean tumor weight, dose: 4.0 mg/kg/injection, schedule: Q01DX011 (ip), vehicle: saline, higher = larger tumour",18 % of control
same,T/C,"endpoint: mean tumor weight, dose: 5.0 mg/kg/injection, schedule: Q01DX011 (ip), vehicle: saline, higher = larger tumour",12 % of control and 15 % of control
same,T/C,"endpoint: mean tumor weight, dose: 6.0 mg/kg/injection, schedule: Q01DX011 (ip), vehicle: saline, higher = larger tumour",19 % of control
same,T/C,"endpoint: mean tumor weight, dose: 7.5 mg/kg/injection, schedule: Q01DX011 (sc), vehicle: saline, higher = larger tumour",23 % of control
same,T/C,"endpoint: mean tumor weight, dose: 8.4 mg/kg/injection, schedule: Q01DX011 (ip), vehicle: saline, higher = larger tumour",7 % of control
same,T/C,"endpoint: mean tumor weight, dose: 8.5 mg/kg/injection, schedule: Q01DX011 (ip), vehicle: saline, higher = larger tumour",19 % of control
same,T/C,"endpoint: mean tumor weight, dose: 10.0 mg/kg/injection, schedule: Q04DX003 (ip), vehicle: saline, higher = larger tumour",56 % of control
same,T/C,"endpoint: mean tumor weight, dose: 12.5 mg/kg/injection, schedule: Q04DX003 (ip), vehicle: saline, higher = larger tumour",23 % of control
same,T/C,"endpoint: mean tumor weight, dose: 14.0 mg/kg/injection, schedule: Q01DX011 (ip), vehicle: saline, higher = larger tumour",6 % of control
same,T/C,"endpoint: mean tumor weight, dose: 18.0 mg/kg/injection, schedule: Q04DX003 (ip), vehicle: saline, higher = larger tumour",35 % of control
same,T/C,"endpoint: mean tumor weight, dose: 20.0 mg/kg/injection, schedule: Q01DX011 (ip), vehicle: saline, higher = larger tumour",2 % of control and 12 % of control
same,T/C,"endpoint: mean tumor weight, dose: 20.0 mg/kg/injection, schedule: Q04DX003 (ip), vehicle: saline, higher = larger tumour",43 % of control
same,T/C,"endpoint: mean tumor weight, dose: 23.0 mg/kg/injection, schedule: Q01DX011 (ip), vehicle: saline, higher = larger tumour",5 % of control
same,T/C,"endpoint: mean tumor weight, dose: 23.0 mg/kg/injection, schedule: Q04DX003 (ip), vehicle: saline, higher = larger tumour",40 % of control
same,T/C,"endpoint: mean tumor weight, dose: 25.0 mg/kg/injection, schedule: Q01DX001 (ip), vehicle: saline, higher = larger tumour",51 % of control
same,T/C,"endpoint: mean tumor weight, dose: 25.0 mg/kg/injection, schedule: Q04DX003 (ip), vehicle: saline, higher = larger tumour",18 % of control
same,T/C,"endpoint: mean tumor weight, dose: 36.0 mg/kg/injection, schedule: Q01DX001 (ip), vehicle: saline, higher = larger tumour",65 % of control
same,T/C,"endpoint: mean tumor weight, dose: 36.0 mg/kg/injection, schedule: Q04DX003 (ip), vehicle: saline, higher = larger tumour",18 % of control
same,T/C,"endpoint: mean tumor weight, dose: 39.0 mg/kg/injection, schedule: Q04DX003 (ip), vehicle: saline, higher = larger tumour",19 % of control
same,T/C,"endpoint: mean tumor weight, dose: 40.0 mg/kg/injection, schedule: Q04DX003 (ip), vehicle: saline, higher = larger tumour",31 % of control
same,T/C,"endpoint: mean tumor weight, dose: 51.0 mg/kg/injection, schedule: Q01DX001 (ip), vehicle: saline, higher = larger tumour",35 % of control
same,T/C,"endpoint: median survival time, dose: 2.0 mg/kg/injection, schedule: Q01DX011 (ip), vehicle: saline, higher = longer survival",153 % of control
same,T/C,"endpoint: median survival time, dose: 2.5 mg/kg/injection, schedule: Q01DX014 (ip), vehicle: saline, higher = longer survival",113 % of control
same,T/C,"endpoint: median survival time, dose: 3.0 mg/kg/injection, schedule: Q01DX004 (ip), vehicle: saline, higher = longer survival",116 % of control
same,T/C,"endpoint: median survival time, dose: 3.0 mg/kg/injection, schedule: Q09DX009 (ip), vehicle: saline, higher = longer survival",119 % of control and 120 % of control
same,T/C,"endpoint: median survival time, dose: 3.75 mg/kg/injection, schedule: Q01DX011 (sc), vehicle: saline, higher = longer survival",158 % of control
same,T/C,"endpoint: median survival time, dose: 4.0 mg/kg/injection, schedule: Q01DX011 (ip), vehicle: saline, higher = longer survival",119 % of control
same,T/C,"endpoint: median survival time, dose: 5.0 mg/kg/injection, schedule: Q01DX004 (ip), vehicle: saline, higher = longer survival",123 % of control
same,T/C,"endpoint: median survival time, dose: 5.0 mg/kg/injection, schedule: Q01DX009 (ip), vehicle: none, higher = longer survival",150 % of control and 163 % of control
